# Source: ChEMBL document CHEMBL1201862, “PubChem BioAssay data set” (2004)
# Activity calls are given as the source filed them.
# How the values were obtained:
# Cytochrome P450 1A2 = biological target: T1, Cytochrome P450 1A2 (Homo sapiens, UniProt P05177);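 also: PubChem cytochrome P450 panel assay, CYP1A2 panel member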
# T1 sequence (P05177 whole entry): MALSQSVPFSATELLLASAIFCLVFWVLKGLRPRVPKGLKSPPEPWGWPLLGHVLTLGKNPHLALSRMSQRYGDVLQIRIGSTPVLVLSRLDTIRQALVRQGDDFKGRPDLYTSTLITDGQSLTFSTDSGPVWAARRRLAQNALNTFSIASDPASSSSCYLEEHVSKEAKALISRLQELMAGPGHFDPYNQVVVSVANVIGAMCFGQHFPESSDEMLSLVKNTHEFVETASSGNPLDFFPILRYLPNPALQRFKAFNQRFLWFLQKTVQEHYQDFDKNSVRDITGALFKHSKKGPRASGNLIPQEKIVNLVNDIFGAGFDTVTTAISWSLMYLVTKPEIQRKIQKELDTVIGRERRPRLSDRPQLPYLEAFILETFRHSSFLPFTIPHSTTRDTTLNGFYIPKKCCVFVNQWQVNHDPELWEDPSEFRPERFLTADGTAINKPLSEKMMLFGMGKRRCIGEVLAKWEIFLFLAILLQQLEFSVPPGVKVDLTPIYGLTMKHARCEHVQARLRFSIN
# [1] = biological target: T2, Rac GTPase-activating protein 1 (Homo sapiens, UniProt Q9H0H5); assay: blockers of MgcRacGAP-driven Rac1 GTP hydrolysis – biochemical, ADP Hunter fluorescence, primary and confirmatory, confirmation (AID 624330); format: functional
# T2 sequence (Q9H0H5 whole entry): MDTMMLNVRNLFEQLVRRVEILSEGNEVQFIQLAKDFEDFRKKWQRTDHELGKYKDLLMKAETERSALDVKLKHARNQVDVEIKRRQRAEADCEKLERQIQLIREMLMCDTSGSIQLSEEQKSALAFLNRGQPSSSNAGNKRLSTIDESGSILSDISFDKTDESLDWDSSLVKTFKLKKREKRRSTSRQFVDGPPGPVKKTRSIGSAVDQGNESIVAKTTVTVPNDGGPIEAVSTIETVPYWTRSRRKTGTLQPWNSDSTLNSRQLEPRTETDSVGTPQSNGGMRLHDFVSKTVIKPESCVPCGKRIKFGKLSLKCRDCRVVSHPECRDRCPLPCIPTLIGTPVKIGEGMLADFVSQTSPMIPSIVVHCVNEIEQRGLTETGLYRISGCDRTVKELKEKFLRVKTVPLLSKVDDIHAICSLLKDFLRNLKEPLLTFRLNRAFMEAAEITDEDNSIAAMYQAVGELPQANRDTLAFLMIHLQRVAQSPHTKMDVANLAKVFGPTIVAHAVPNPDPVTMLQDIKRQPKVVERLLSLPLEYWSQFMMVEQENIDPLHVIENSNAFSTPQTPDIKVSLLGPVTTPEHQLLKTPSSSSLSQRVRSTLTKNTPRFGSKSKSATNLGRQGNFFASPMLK
# [2] = biological target: T3, Heat shock factor protein 1 (Mus musculus, UniProt P38532); assay: decrease of HSF1-responsive luciferase luminescence – cell-based, NIH3T3, dose retest, confirmation (AID 2382); format: functional;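 also: NIH3T3 fibroblasts with HSF1-driven luciferase reporter stressed by proteasome inhibitor MG132; luminescence from HSF1-driven luciferase expression after 8 hours of MG132 stress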
# T3 sequence (P38532 whole entry): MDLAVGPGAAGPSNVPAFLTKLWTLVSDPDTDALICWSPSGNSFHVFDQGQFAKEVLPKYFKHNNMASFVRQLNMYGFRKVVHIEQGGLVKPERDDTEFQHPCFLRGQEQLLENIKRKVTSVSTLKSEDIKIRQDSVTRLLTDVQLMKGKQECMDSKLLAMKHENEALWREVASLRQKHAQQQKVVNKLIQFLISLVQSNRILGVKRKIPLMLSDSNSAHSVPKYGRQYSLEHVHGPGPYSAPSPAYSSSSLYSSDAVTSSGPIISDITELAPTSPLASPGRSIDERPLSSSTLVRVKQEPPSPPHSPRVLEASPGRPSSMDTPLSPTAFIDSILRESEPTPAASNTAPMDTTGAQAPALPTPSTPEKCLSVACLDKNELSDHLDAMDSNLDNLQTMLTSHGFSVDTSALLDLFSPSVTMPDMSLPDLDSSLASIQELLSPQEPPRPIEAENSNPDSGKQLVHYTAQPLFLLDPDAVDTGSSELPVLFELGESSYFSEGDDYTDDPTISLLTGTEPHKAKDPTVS
# Cytochrome P450 2D6 = Cytochrome P450 2D6 (Homo sapiens, UniProt P10635);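 also: CYP2D6 member of a cytochrome P450 panel assay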
# Cytochrome P450 2D6, sequence (P10635 whole entry): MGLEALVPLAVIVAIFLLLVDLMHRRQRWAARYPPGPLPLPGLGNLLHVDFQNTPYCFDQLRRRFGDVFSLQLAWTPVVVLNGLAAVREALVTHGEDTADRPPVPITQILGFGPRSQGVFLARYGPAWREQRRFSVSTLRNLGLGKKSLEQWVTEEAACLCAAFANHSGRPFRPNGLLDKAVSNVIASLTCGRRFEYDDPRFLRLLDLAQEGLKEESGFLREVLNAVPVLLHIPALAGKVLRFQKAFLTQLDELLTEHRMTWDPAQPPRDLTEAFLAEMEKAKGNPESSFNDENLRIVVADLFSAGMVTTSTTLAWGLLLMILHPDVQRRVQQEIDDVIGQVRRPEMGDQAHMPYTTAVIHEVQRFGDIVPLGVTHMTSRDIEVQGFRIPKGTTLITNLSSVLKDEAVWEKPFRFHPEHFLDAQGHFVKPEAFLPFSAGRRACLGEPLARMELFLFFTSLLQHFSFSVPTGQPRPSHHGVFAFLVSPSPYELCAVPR
# cells = format: functional
# [3] = system: Streptococcus sp. 'group A'; assay: Streptococcus pyogenes SK(-)GAS viability under kanamycin – luminescence, BacTiterGlo, confirmation, counter-screen for streptokinase expression inhibitor project, dose response (AID 1900); format: functional, organism-based
# Streptococcus = assay: GAS UMAA2166 growth inhibition – luminescence, BacTiterGlo, counter-screen for streptokinase expression inhibitor project, dose response (AID 1915); format: functional, organism-based;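 also: potency for reduction of bacterial viability or growth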
# Streptokinase A = biological target: T4, Streptokinase A (Streptococcus pyogenes serotype M1, UniProt P10520); assay: viability-normalized secreted streptokinase activity reduction – plasminogen activation absorbance, OD405, dose response (AID 1914); format: functional, Streptococcus pyogenes M1 GAS;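 also: secreted streptokinase activity via plasminogen activation per viability signal from cell pellet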
# T4 sequence (P10520 whole entry): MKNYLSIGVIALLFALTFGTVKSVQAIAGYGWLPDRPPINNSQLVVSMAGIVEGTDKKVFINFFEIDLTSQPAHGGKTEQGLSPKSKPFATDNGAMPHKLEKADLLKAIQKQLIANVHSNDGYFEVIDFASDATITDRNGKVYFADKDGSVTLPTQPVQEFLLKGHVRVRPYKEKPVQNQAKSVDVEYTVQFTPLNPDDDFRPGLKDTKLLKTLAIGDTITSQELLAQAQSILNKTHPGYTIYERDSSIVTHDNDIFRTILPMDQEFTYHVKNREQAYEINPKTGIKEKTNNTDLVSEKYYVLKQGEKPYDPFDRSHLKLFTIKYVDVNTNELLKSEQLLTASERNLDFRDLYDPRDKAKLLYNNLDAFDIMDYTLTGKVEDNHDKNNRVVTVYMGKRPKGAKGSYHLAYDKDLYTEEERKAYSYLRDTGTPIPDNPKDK
# [4] = biological target: T5, Replicative DNA helicase DnaB (Mycobacterium tuberculosis, UniProt P9WMR3); assay: DnaB intein splicing inhibitors, dose response, biochemical, cell-free fluorescence (AID 449749); format: functional
# T5 sequence (P9WMR3 whole entry): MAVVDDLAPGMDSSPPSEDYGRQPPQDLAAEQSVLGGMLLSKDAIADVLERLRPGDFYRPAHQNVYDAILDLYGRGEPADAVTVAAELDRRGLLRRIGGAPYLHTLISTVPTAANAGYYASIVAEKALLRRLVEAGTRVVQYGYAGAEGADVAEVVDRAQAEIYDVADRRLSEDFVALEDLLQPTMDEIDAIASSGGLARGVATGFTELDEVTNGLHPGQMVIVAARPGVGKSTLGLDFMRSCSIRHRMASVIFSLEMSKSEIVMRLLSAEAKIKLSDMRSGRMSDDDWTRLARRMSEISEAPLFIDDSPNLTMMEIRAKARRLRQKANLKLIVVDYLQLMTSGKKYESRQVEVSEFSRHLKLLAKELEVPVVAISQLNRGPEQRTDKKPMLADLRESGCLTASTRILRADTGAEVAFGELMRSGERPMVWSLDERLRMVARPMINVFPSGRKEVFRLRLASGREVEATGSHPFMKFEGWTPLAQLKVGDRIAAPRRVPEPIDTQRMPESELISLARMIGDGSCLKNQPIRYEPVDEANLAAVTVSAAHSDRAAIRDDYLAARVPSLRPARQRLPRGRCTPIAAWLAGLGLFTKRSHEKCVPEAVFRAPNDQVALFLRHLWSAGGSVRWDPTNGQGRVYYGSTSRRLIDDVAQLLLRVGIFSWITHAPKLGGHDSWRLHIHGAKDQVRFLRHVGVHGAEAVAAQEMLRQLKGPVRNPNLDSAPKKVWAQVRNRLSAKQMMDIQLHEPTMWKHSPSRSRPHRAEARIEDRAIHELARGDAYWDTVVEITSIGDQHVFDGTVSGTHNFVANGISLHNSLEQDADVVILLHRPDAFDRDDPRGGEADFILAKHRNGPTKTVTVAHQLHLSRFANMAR
# Protein RecA = biological target: T6, Protein RecA (Mycobacterium tuberculosis, UniProt P9WHJ3); assay: Fluorescence Cell-Free Homogeneous Dose Retest to Identify Inhibitors of RecA-Intein Splicing Activity. [Related pubchem assays (depositor defined):AID2097, AID2223, AID489010, AID492950]; format: functional
# T6 sequence (P9WHJ3 whole entry): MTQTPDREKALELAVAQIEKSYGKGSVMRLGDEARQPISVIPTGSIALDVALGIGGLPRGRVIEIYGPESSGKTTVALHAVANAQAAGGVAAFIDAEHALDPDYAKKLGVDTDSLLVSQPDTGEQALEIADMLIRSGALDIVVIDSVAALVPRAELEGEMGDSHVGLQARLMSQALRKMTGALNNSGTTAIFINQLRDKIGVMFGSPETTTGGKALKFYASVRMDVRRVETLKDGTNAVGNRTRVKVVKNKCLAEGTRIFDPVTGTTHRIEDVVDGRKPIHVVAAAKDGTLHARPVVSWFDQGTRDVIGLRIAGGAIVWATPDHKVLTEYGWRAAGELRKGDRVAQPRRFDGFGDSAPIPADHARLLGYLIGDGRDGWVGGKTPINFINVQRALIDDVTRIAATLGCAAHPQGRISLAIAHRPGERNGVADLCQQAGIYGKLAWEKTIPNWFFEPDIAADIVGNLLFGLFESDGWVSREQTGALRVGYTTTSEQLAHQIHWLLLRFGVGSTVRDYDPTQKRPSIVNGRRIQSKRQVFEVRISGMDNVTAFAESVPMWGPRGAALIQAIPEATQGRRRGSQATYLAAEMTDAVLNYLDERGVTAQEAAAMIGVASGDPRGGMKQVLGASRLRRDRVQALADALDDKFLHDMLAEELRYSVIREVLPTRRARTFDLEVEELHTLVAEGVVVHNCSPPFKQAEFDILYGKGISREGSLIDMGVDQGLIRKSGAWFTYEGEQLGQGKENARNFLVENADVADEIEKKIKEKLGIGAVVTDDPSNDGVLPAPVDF
smiles,measurement,setting,value
COc1ccc(Oc2ncc3ncc(=O)n(CCc4ccccc4)c3n2)cc1,AC50,Cytochrome P450 1A2,0.631 µM (inconclusive)
CCS(=O)(=O)NC(C)C(c1cccs1)N1CCN(c2ccc(OC)cc2)CC1 (stereo not drawn),IC50,[1],91.3 µM (active)
CCCc1cc(=O)oc2cc(C)cc(OCC(=O)NCCCn3ccnc3)c12,EC50,[2],> 195 µM (not active)
COc1ccccc1N1CCN(C[C@@H](C(=O)NC(C)(C)C)c2ccccc2)CC1,AC50,Cytochrome P450 2D6,20 µM (inconclusive)
same,AC50,Cytochrome P450 1A2,0.631 µM (inconclusive)
Oc1cc(C(F)(F)F)nc2c(C(F)(F)F)cccc12,IC50,cells,50 µM (active)
same,EC50,[3],2.62 µM (active)
same,EC50,Streptococcus,8.27 µM (active)
CC(C)Oc1ccc(/C=C(/NC(=O)c2ccccc2)C(=O)NCCC(=O)O)cc1,EC50,[2],> 195 µM (not active)
Cc1ccccc1C(=O)Nc1nnc(-c2ccco2)o1,IC50,cells,5.71 µM (active)
CCCCCCCC/C=C\CCCCCCCC(=O)NCc1ccc(O)c(OC)c1 [OLVANIL],AC50,Cytochrome P450 1A2,20 µM (inconclusive)
COc1ccc(OC)c(CN2CCN(Cc3ccc(OC)c(OC)c3OC)CC2)c1,IC50,[1],77.7 µM (active)
CN/C(=N\c1ccc(C2=NNC(=O)C[C@@H]2C)cc1)NC#N,AC50,Cytochrome P450 1A2,39.8 µM (inconclusive)
CCN1CCN(CC(O)COC(c2ccccc2)c2ccccc2C)CC1 (stereo not drawn),IC50,[1],64.1 µM (active)
CN1CCc2cc(Cl)c(O)cc2[C@H](c2ccccc2)C1,AC50,Cytochrome P450 1A2,31.6 µM (inconclusive)
CCNc1ncc2nc(-c3cn(C)c4ccccc34)c(=O)n(Cc3cccc(OC)c3)c2n1,AC50,Cytochrome P450 1A2,12.6 µM (inconclusive)
COc1ccccc1NC1=C(Cl)C(=O)N(C2CCCCC2)C1=O,EC50,[2],> 195 µM (not active)
O=[N+]([O-])c1ccc(CN2CCN(c3ccccc3Cl)CC2)o1,IC50,cells,0.84 µM (active)
CC(=O)Nc1ccc(N=Nc2ccc(O)cc2)cc1,IC50,[1],27.1 µM (active)
CCOC(=O)c1cc(NCc2cccs2)ccc1N1CCOCC1,IC50,[1],93 µM (active)
CCN(CC)c1ccc(NC(=O)C2CCCC2)cc1,IC50,[1],63.5 µM (active)
CCOC(=O)C(=O)NC12CC3CC(CC(C3)C1)C2,IC50,cells,44.5 µM (active)
Cc1ccc(C(=O)N/C(=C/c2ccco2)C(=O)Nc2cccc(C(=O)O)c2)cc1,EC50,[2],> 195 µM (not active)
O=C(NCc1cccs1)c1ccccc1[N+](=O)[O-],EC50,[2],> 195 µM (not active)
O=[N+]([O-])c1ccc(SCCc2ccncc2)cc1,EC50,[2],> 195 µM (not active)
CCOc1cc(/C=N/NC(=O)c2ccc(NC(=O)C3CC3)cc2)ccc1O,IC50,[1],72.4 µM (active)
O=S(=O)(N[C@H]1C[C@@H](NS(=O)(=O)OCC(Cl)(Cl)Cl)C2CCCCC21)OCC(Cl)(Cl)Cl (stereo partly drawn),EC50,Streptokinase A,1.7 µM (active)
same,AC50,[4],3.31 µM (active)
same,EC50,[3],2.45 µM (active)
same,EC50,Streptococcus,5.38 µM (active)
same,EC50,Protein RecA,50.9 µM (active)
COc1ccc(CN2CCNC(=O)C2CC(=O)NC2CC(C)(C)CC(C)(C)C2)cc1OC (stereo not drawn),EC50,[2],> 195 µM (not active)
CCOC(=O)c1cc(-c2csc(COc3ccccc3Cl)n2)on1,IC50,cells,0.4 µM (active)
C/C(=N/NC(=O)c1ccncc1)C1=C(O)CC(C)(C)CC1=O,IC50,cells,5.71 µM (active)
O=C(OCc1cccc([N+](=O)[O-])c1)c1ccc2ccccc2n1,IC50,cells,5.04 µM (active)
COc1cc(/C=N/NC(=O)CNC(=O)c2cccs2)ccc1O,IC50,[1],42.2 µM (active)
N#CC1=C(S)N(c2ccc(F)cc2)C(c2ccco2)NC1=O (stereo not drawn),IC50,[1],84.4 µM (active)
O=C(NC(=S)NCCC1=CCCCC1)c1cncc(Br)c1,EC50,[2],> 195 µM (not active)
